We go through ten compounds from patent US6576662B2, “Compounds having anticancer activity : process for their preparation and pharmaceutical compositions containing them” (Dr. Reddy's Laboratories Limited, priority 2000, dated 2003).

Like-named read-outs stand apart in the source and are kept apart here.

In data set [1] the test system is A498. The data set is described as follows: in vitro anti-cancer screen, Sulforhodamine B method. The class given is cell-based, human. The following applies: RENAL: A498, 48 h incubation, read-out: GROWTH INHIBITION (GI 50). The procedure:
(§1) Each test compound was screened against a battery of cell lines representing eight different types of cancers. In a typical procedure, 1×10^4 cells were seeded into each well of 96 well plate in 100 μL volume of RPMI 1640 medium containing antibiotics and 10% FCS.
(§2) The plates were incubated at 37° C. in presence of CO2. After 24 h, test compounds were evaluated at five 10 fold dilutions ranging from 100 to 0.01 μM. To each test well 100 μL of test compound solution was added and medium with vehicle was added to control wells and the plates were further incubated. After 48 h of incubation, plates were terminated by Sulforhodamine B method.
(§3) The optical density which is proportional to protein mass, is then-read by automated spectrophotometric plate reader at a wavelength of 515 nm.

The test system of data set [2] is H522. Described as above. It counts as cell-based, human. The following applies: LUNG: H522, 48 h incubation, read-out: GROWTH INHIBITION (GI 50). The protocol:
as §1, §2, §3

The subject of data set [3] is HT29. The data set is described as above. It counts as cell-based, human. To be noted: COLON: HT29, 48 h incubation, read-out: GROWTH INHIBITION (GI 50). The protocol:
as §1, §2, §3

The test system of data set [4] is MCF-7/ADR. Described as above. It counts as cell-based, human. The following applies: BREAST: MCF-7/ADR, 48 h incubation, read-out: GROWTH INHIBITION (GI 50). The procedure:
as §1, §2, §3

The subject of data set [5] is MCF7. The description is as above. To be noted: BREAST: MCF7, 48 h incubation, read-out: GROWTH INHIBITION (GI 50). It counts as cell-based, human. The protocol:
as §1, §2, §3

The subject of data set [6] is PA1. Described as above. It counts as cell-based, human. The following applies: OVARIAN: PA1, 48 h incubation, read-out: GROWTH INHIBITION (GI 50). The procedure:
as §1, §2, §3

The test system of data set [7] is SKOV-3. The description is as above. The following applies: OVARIAN: SKOV-3, 48 h incubation, read-out: GROWTH INHIBITION (GI 50). It counts as cell-based, human. The protocol:
as §1, §2, §3

Data set [8] deals with SW-620. The data set is described as above. The class given is cell-based, human. The following applies: COLON: SW-620, 48 h incubation, read-out: GROWTH INHIBITION (GI 50). The protocol:
as §1, §2, §3

Data set [9] deals with U251. The description is as above. The class given is cell-based, human. The following applies: CNS: U251, 48 h incubation, read-out: GROWTH INHIBITION (GI 50). The procedure: as §1, §2, §3
Data set [10] concerns UACC62. The description is as above. It counts as cell-based, human. To be noted: MELANOMA: UACC62, 48 h incubation, read-out: GROWTH INHIBITION (GI 50). The protocol:
as §1, §2, §3

The subject of data set [11] is Human lymphocytes. The data set is described as follows: Lymphocyte proliferation, tritiated thymidine incorporation. It counts as cell-based. The following applies: Concentration 1 μM; human lymphocytes with Phytohemagglutitin A. The procedure:
Human lymphocytes were isolated from whole blood by using Ficoll Hypaque Plus (Amersham). On day one, 1 million lymphocytes were seeded into each well of 96 well plate in 100 μL volume of RPMI 1640 medium containing 10% FCS and Phytohemagglutitin A at 1 μg/well concentration. Plates were incubated at 37° C. in CO2 incubator for 24 h. Test compounds at various concentrations were added to test wells and only medium with vehicle was added to control wells. After 48 h of incubation […] of tritiated thymidine was added to each well. After 24 h of thymidine addition the cells were harvested and the incorporated radioactivity was determined. Stimulation Index (SI) was calculated using the formula, [formula]
A^T=Average CPM of treated wells,
A^C=Average CPM of control wells.

Data set [12] deals with tumor cell lines. The following applies: cited from earlier work.
The subject of data set [13] is DU145. As to the kind of experiment: in vitro anti-cancer screen, Sulforhodamine B method. It counts as cell-based, human. The following applies: PROSTATE: DU145, 48 h incubation, read-out: GROWTH INHIBITION (GI 50). The protocol:
as §1, §2, §3

Data set [14] relates to M14. The data set is described as above. The following applies: MELANOMA: M14; 48 h incubation; read-out: GROWTH INHIBITION (GI 50). It counts as cell-based, human. The protocol: as §1, §2, §3
Data set [15] deals with PC-3. Described as above. It counts as cell-based. The following applies: Homo sapiens; PROSTATE: PC-3; 48 h incubation; read-out: GROWTH INHIBITION (GI 50). The protocol: as §1, §2, §3
In data set [16] the test system is ACHN. The data set is described as follows: in vitro anti-cancer screen, Sulforhodamine B method. The class given is cell-based. The following applies: Homo sapiens; RENAL: ACHN; 48 h incubation; read-out: GROWTH INHIBITION (GI 50). The protocol: as §1, §2, §3
Data set [17] concerns OVCAR. The data set is described as above. The class given is cell-based. The following applies: Homo sapiens; OVARIAN: OVCAR; 48 h incubation; read-out: GROWTH INHIBITION (GI 50). The protocol:
as §1, §2, §3

As for “3,19-Diacetyl-14-deoxy-12-[N^1-(5-iodouracil)]andrographolide [Example 48]”, the GI50 amounted to 3 µM in [1]; 4 µM in data set [2]; 4 µM in data set [3]; 2 µM in [4]; 2 µM in data set [5]; 2 µM in data set [6]. For the same compound, the GI50 in data set [7] came out at 3 µM; in [8] it was 4 µM; in data set [9], 2 µM; in data set [10] it was 3 µM. Also, the “Stimulation Index (SI)” value in data set [11] stood at 130.

Consider `C=C1CCC2[C@](C)(CC[C@@H](O)[C@@]2(C)CO)C1/C=C/C1=CCOC1=O` (stereo partly shown) [14-deoxy-11,12-didehydroandrographolide], for which the cytotoxic activity entry in data set [12] is given as “no cytotoxic activity”.

`C=C1CCC2C(C)(COC(C)=O)C(OC(C)=O)CCC2(C)C1CC(NCc1ccc(OC)cc1)C1=CCOC1=O` (stereo not shown) [Example 3, 3,19-Diacetyl-14-deoxy-12-(N-4-methoxybenzylamino)andrographolide]: the GI50 in [1] is 0.18 µM; in data set [13] it was 8 µM; in [2] it was 0.18 µM; in data set [14] it was 5.5 µM; in data set [4], 5 µM; in data set [7], 0.15 µM. The values for the GI50 in data set [8] and in [9] were 3.5 µM and 8 µM, respectively.

`C=C1CCC2[C@](C)(CO)[C@H](O)CC[C@]2(C)[C@H]1CC(NCc1ccccc1)C1=CCOC1=O` (stereo partly shown) [Example 18, 12-(N-Benzylamino)-14-deoxy andrographolide] returned a melting point of 192 °C. For the same compound, in data set [1] (Homo sapiens), the GI50 is 2.5 µM. In [13] (Homo sapiens, DU-145), the GI50 turned out to be 10 µM. Also, in [2] (Homo sapiens, NCI-H522), the GI50 stood at 6 µM. Also, the GI50 in data set [3] (Homo sapiens, HT-29) came out at 10 µM. For the same compound, in data set [4] (Homo sapiens, NCI/ADR-RES), the GI50 turned out to be 2.5 µM. For the same compound, the GI50 in data set [5] (Homo sapiens) turned out to be 3 µM. For the same compound, the GI50 in [6] (Homo sapiens, PA-1) was 3 µM. Besides, in data set [7] (Homo sapiens, SK-OV-3), the GI50 came to 4 µM. Besides, the GI50 in [8] (Homo sapiens) came out at 2.5 µM. Further, in [9] (Homo sapiens, U-251), the GI50 was found to be 0.07 µM. In data set [10] (Homo sapiens, UACC-62), the GI50 turned out to be 3.5 µM. Besides, in [15], the GI50 stood at 2.5 µM. The “Stimulation Index (SI)” value in data set [11] is given as 64.

Take `C=C1CCC2[C@]3(C)COC(C)(c4ccccc4)OC3CC[C@]2(C)[C@H]1CC(NCc1ccccc1)C1=CCOC1=O` (stereo partly shown) [Example 21, 12-(N-Benzylamino)-14-deoxy-3,19-O-(1-phenylethylidene)andrographolide]: the melting point was found to be 149.6 °C. Besides, the GI50 in data set [1] (Homo sapiens) turned out to be 2 µM. Also, the GI50 in [2] (Homo sapiens, NCI-H522) was 3 µM. Also, the GI50 in [3] (Homo sapiens, HT-29) came out at 3 µM. For the same compound, the GI50 in data set [4] (Homo sapiens, NCI/ADR-RES) is 1 µM. For the same compound, the GI50 in data set [5] (Homo sapiens) worked out at 3 µM. Moreover, the GI50 in data set [6] (Homo sapiens, PA-1) was found to be 2 µM. The GI50 in data set [7] (Homo sapiens, SK-OV-3) was 2 µM. Moreover, the GI50 in data set [8] (Homo sapiens) amounted to 2 µM. For the same compound, the GI50 in [9] (Homo sapiens, U-251) is 2 µM. Moreover, the GI50 in data set [10] (Homo sapiens, UACC-62) worked out at 2 µM. Moreover, the “Stimulation Index (SI)” value in [11] was determined as 16.

For `C=C1CCC2[C@]3(C)COC(C)(c4ccccc4)OC3CC[C@]2(C)[C@H]1CC(NC(Cc1ccccc1)C(=O)OC)C1=CCOC1=O` (stereo partly shown) [Example 22, 14-Deoxy-12-(O-methylphenylalanino)-3,19-O-(1-phenylethylidene)andrographolide], the melting point was 171.6 to 171.9 °C. Further, the GI50 in data set [13] (Homo sapiens, DU-145) worked out at 12 µM. For the same compound, in [2] (Homo sapiens, NCI-H522), the GI50 was 20 µM. In data set [3] (Homo sapiens, HT-29), the GI50 turned out to be 3 µM. Also, the GI50 in data set [4] (Homo sapiens, NCI/ADR-RES) was 2 µM. Besides, the GI50 in data set [5] (Homo sapiens) worked out at 3 µM. In addition, the GI50 in [6] (Homo sapiens, PA-1) came out at 1.4 µM. For the same compound, the GI50 in data set [7] (Homo sapiens, SK-OV-3) stood at 4 µM. Also, in data set [8] (Homo sapiens), the GI50 turned out to be 3 µM. The GI50 in data set [9] (Homo sapiens, U-251) came to 3 µM. The GI50 in [10] (Homo sapiens, UACC-62) came to 3 µM. For the same compound, the GI50 in data set [16] is 14 µM. Moreover, the GI50 in data set [17] turned out to be 1.4 µM. Further, the GI50 in data set [15] was 2 µM.

`C=C1CCC2[C@](C)(CO)[C@H](O)CC[C@]2(C)[C@H]1CC(C1=CCOC1=O)n1cc(F)c(=O)[nH]c1=O` (stereo partly shown) [Example 51, 14-Deoxy-12-[N^1-(5-fluorouracil)]andrographolide] displayed a melting point of 155 °C. Besides, in [1] (Homo sapiens), the GI50 worked out at 2.5 µM. Besides, the GI50 in [13] (Homo sapiens, DU-145) is 15 µM. The GI50 in [2] (Homo sapiens, NCI-H522) is 5 µM. Also, the GI50 in data set [3] (Homo sapiens, HT-29) came out at 10 µM. Further, in data set [4] (Homo sapiens, NCI/ADR-RES), the GI50 is 4 µM. The GI50 in [5] (Homo sapiens) turned out to be 4 µM. The GI50 in [6] (Homo sapiens, PA-1) worked out at 3 µM. Also, the GI50 in [7] (Homo sapiens, SK-OV-3) is 7 µM. Moreover, the GI50 in data set [8] (Homo sapiens) was 3.5 µM. Further, the GI50 in [9] (Homo sapiens, U-251) turned out to be 2 µM. Besides, in data set [10] (Homo sapiens, UACC-62), the GI50 came out at 6 µM. For the same compound, the GI50 in [15] came to 3 µM.

Turning to `C=C1CCC2C(C)(COC(C)=O)C(OC(C)=O)CCC2(C)C1CC(Sc1ccccc1)C1=CCOC1=O` (stereo not shown) [Example 58, 3,19-Diacetyl-14-deoxy-12-phenylthio andrographolide], the GI50 was determined as 0.2 µM in [1]; 7.5 µM in data set [13]; 7 µM in data set [2]; 4 µM in data set [14]; 6.5 µM in data set [4]; 6 µM in [7]. Further, the figures for the GI50 in [8] and in [9] were 5 µM and 4 µM, respectively. Also, the “Stimulation Index (SI)” value in [11] worked out at 99.

`CC(=O)OCC1(C)C(OC(C)=O)CCC2(C)C(CC(Sc3ccccc3)C3=CCOC3=O)C3(CCC12)CO3` (stereo not shown) [Example 70, 3,19-Diacetyl-14-deoxy-8,17-epoxy-12-phenylthio andrographolide]: the GI50 worked out at 4 µM in [1]; 2 µM in [13]; 7 µM in data set [2]; 3 µM in data set [14]; 8 µM in [4]; 4 µM in data set [7]. Also, the GI50 in data set [8] was determined as 4 µM; in data set [9], 7 µM.

In the case of `C=C1CC[C@@H]2[C@](C)(CO[C@@H]3O[C@H](CO)[C@@H](O)[C@H](O)[C@H]3O)CCC[C@@]2(C)[C@@H]1CCC1=CCOC1=O` [neoandrographolide], in [12], the cytotoxic activity result was “no cytotoxic activity”.
